Experimental data taken from patent publication US20160193240A1, “Ulmoside-A: Useful For Prevention Or Cure Of Metabolic Diseases” (COUNCIL OF SCIENTIFIC & INDUSTRIAL RESEARCH, priority 2013, published 2016).

Experiments:
[1] = system: C2C12 myotubes; assay: Mitochondrial DNA content by QRT-PCR in C2C12 myotubes; format: cell-based, mouse; settings: 10 nM, 72 hours
Method: D. ULMA increases mitochondrial DNA content. C2C12 myotubes in 6 well plates were treated with vehicle (0.1% vol/vol DMSO) or 10 nM ULMA (in DMSO) for 72 h. Following which, total cellular DNA was isolated from these cells by standard procedure (using a genomic DNA isolation kit; Macherey Nagel; according to manufacturer's instructions) and the mitochondrial DNA content was measured by QRT-PCR based measurement of mitochondrial coxII (Mit-CoxII) and cytochrome b (Cytb) and normalized with genomic glycerol three phosphate dehydrogenase DNA level. Data represent mean±SEM from three independent experiments performed in triplicates. *p<0.05 as determined by two tailed unpaired student's t-test.
Adiponectin is also known to activate PGC-1α by indirectly deacetylating this protein through activation of sirt1 (M. Iwabu, T. Yamauchi, M. Okada-Iwabu, K. Sato, T. Nakagawa, M. Funata, M. Yamaguchi, S. Namiki, R. Nakayama, M. Tabata, H. Ogata, N. Kubota, I. Takamoto, Y. K. Hayashi, N. Yamauchi, H. Waki, M. Fukayama, I. Nishino, K. Tokuyama, K. Ueki, Y. Oike, S. Ishii, K. Hirose, T. Shimizu, K. Touhara, T. Kadowaki. Nature; 464(7293): 1313-1319. 2010), therefore PGC-1α acetylation status following ULMA treatment was checked in C2C12 cells. C2C12 myotubes plated in 10 cm dish were treated with vehicle (DMSO) or 10 nM ULMA in DMSO for 6 hours. […]

[2] = system: Mouse stromal vascular fractions (SVF); assay: Brown adipose marker expression and mitochondrial copy number in mouse stromal vascular fractions; format: cell-based
Method: B. Mouse stromal vascular fractions (SVF) isolated from epididymal fat pads using collagenase digestion was differentiated in presence or absence of 10 nM ULMA and were analyzed for indicated mRNA expressions. **p<0.01, ***p<0.001 as determined by two tailed unpaired student's t-test.
C. Cells from identical set of experiments as described in FIGS. 5A and 5B or human SVFs prepared by collagenase digestions were analyzed by western blot analysis for determination of UCP-1, UCP-2 and PGC-1α protein level. Beta-actin was used as a loading control. Data is representative of three independent experiments.
D. Mouse SVFs differentiated in presence or absence of 10 nM ULMA were evaluated for mitochondrial copy number. Total cellular DNA was isolated from these cells by standard procedure (using a genomic DNA isolation kit; Macherey Nagel; according to manufacturer's instructions) and the mitochondrial DNA content was measured by QRT-PCR based measurement of mitochondrial cytochrome b (Cytb) by qPCR and normalized with genomic glycerol three phosphate dehydrogenase DNA level. Data represent mean±SEM from three independent experiments performed in triplicates. **p<0.01 as determined by two tailed unpaired student's t-test.
Mouse stromal vascular fractions (SVF) from epididymal fat pad were prepared using standard collagenase digestion method. Human SVF was prepared from human lipoaspirates (subcutaneous) collected from an obese individual undergoing liposuction following approval of Institutional Ethical Committee. To isolate SVFs, epidymal fat pads tissue or lipoaspirates were washed 6× in PBS and then were dispensed in tissue culture flasks. 0.2% sterile collagenase (Sigma) solution containing 1× antibiotic-antimycotic (Invitrogen) was then added to the adipose and the flasks were shaken vigorously for 10 seconds. The flasks were then incubated at 37° C. on a shaker for 2 hours with manual shaking of the flasks for 5-10 seconds every 15 min. After completion of digestion, FBS was added to the final concentration of 10% to the flasks, mixed and the collagenase digested tissue were then dispensed in 50 ml conical tubes and were centrifuged at 400 g for 10 min at room temp. The supernatant was discarded and the pellets constituting the SVFs were then reconstituted in culture medium (DMEM/F12 50:50+10% FBS) and plated in T25 tissue culture flasks and cultured for further experiments.
The SVFs were differentiated as for 3T3L-1 (described above), in presence of ULMA or vehicle (10 d for mouse SVF and 21 d for human SVF), following which they were lysed and used for QPCR or western blot analysis.
For western blot-based determination of UCP-1, UCP-2 and PGC-1α protein level, cells from an identical set of experiment were lysed and western blotted with UCP-1, UCP-2 (Abcam), PGC-1α(Calbiochem), or beta-actin (cell signaling technology; used as a loading control) as described above.

[3] = differentiated in presence of ULMA, 10 d

O=C1c2c(cc(O)c([C@@H]3O[C@H](CO)[C@@H](O)[C@H](O)[C@H]3O)c2O)O[C@@H](c2ccc(O)c(O)c2)[C@@H]1O [ULMA, (2S,3S)-(+)-3′,4′,5,7-tetrahydroxydihydroflavonol-6-C-β-D-glucopyranoside]
Cytochrome B (Cytb) DNA level [1]: enhanced | mitochondrial cytochrome oxidase II (COX-II) DNA level [1]: enhanced | PGC-1α mRNA level ([2]; 10 nM, 10 d differentiation): significant increase | PRDM16 mRNA level ([2]; 10 nM, 10 d differentiation): significant increase | UCP-1 mRNA level ([2]; 10 nM, 10 d differentiation): significant increase | UCP-2 mRNA level ([2]; 10 nM, 10 d differentiation): significant increase | mitochondrial DNA copy number (cytb level) ([2]; 10 nM, differentiated mouse SVFs): significantly higher | PGC-1α protein level [2, 3]: elevated | UCPs protein level [2, 3]: elevated
